Results on 6 molecules are retold here after US20150080380A1, “Therapeutic Uses” (GLAXOSMITHKLINE INTELLECTUAL PROPERTY DEVELOPMENT LIMITED, priority 2012, published 2015).

Structures can show the parent of a compound that is named as a salt.

The first assay deals with OPC differentiation. Nature of the assay: Oligodendrocyte precursor cell (OPC) differentiation assay (MBP immunocytochemistry). The format is cell-based, rat. The settings on record: Rattus norvegicus, Oligodendrocyte precursor cell, 96 h; 0.3 nM-10 uM, 4 days, FIG. 1; read-out: EC50, promotion of OPC differentiation (MBP+ population). As for the experimental part:
The effects of small-molecule inverse agonists and neutral antagonists of histamine receptor 3 (H3R) on OPC differentiation were determined using the following assay.
The enriched OPC were obtained from dissecting 2-d-old rat pups forebrain. The pups were anesthetized and decapitated. Then the skull was cut with microdissecting scissors and the cortex was taken out with Dumont forceps. The meninges were removed with fine tips. After repeated trituration of the cortex through cell strainer, cells were re-suspended with the culture media consisted of DMEM supplemented with 20% Fetal bovine serum (Invitrogen, Carlsbad, Calif.), glutamine (4 mM, (Invitrogen), and plated onto poly-D-lysine (PDL, […] for 1 h, Sigma, St. Louis, Mo.)-coated T75 flasks. The resulting cultures were fed with fresh culture media twice per week and almost all the neurons will die due to the high concentration of serum in one week. Then the mixed glial cells were subjected to a series shake-off procedure to obtain pure OPCs two weeks later. Specifically, the mixed glial cells were shaken initially for 1 hour at 100 rpm to remove microglia and shaken for 20-22 hours at 37° C. at 200 rpm to enrich OPCs. OPCs were collected by centrifugation at 1200 rpm for 5 min, re-suspended in basal chemically defined medium (BDM). BDM consisted of DMEM supplemented with N2 medium (100×, Invitrogen), glutamine (4 mM, Invitrogen), BSA (0.1 mg/ml, Sigma), hydrocortisone (20 nM, Sigma), selenium (30 nM, Sigma) and biotin (10 nM, Sigma). OPCs were plated on poly-ornithine (PO, 50 μg/ml for 1 hr, Sigma)-coated culture dishes and maintained in BDM supplemented with bFGF (10 ng/ml, Invitrogen) and PDGF (10 ng/ml, PeproTech, Rocky Hill, N.J.) before experimental manipulation. OPCs were 95% pure judged by A2B5+ staining.
To initiate OPC differentiation, OPCs were firstly treated with 0.05% Trypsin/EDTA, and seeded into PO-coated 384-mini well plate at a density of 2,000 to 5,000 cells/well. Each test compound was dissolved in DMSO at the concentration of 10 mM for the assay. Compounds at different concentrations (full dose curve, 0.3 nM-10 uM) were added into the OPC culture in duplicates with Echo machine (Thermo, Waltham, Mass.). OPCs were cultured in BDM supplemented with N-acetyl-L-cystenine (30 μM, Sigma) to differentiate into mature oligodendrocytes for 4 days. BDM comprise DMEM (Invitrogen), N2 (100×, Invitrogen), L-Glu (50×, Invitrogen), Sodium Pyruvate (100×, Invitrogen), BSA (0.1%, Sigma), Biotin (10 nM, Sigma), hydrocortisone (10 nM, Sigma). The resulting cultures were fixed with 4% polyformaldehyde (Sigma) and samples were blocked with the blocking buffer (Donkey Serum 3%, Sigma; Triton X-100 0.04%, Sigma). Then fixed cells were incubated in primary antibodies (anti-myelin basic protein, MBP antibody, 600× dilution in blocking buffer) overnight at 4° C., washed thoroughly with PBS and then incubated with Alexa 488-labeled secondary antibody (Molecular Probes, Invitrogen) for 2 h at R.T; then washed thoroughly with PBS and stained with Dapi (1 ug/ml, Sigma),
The full-plate immunocytochemistry staining was read by an automatic image-based analysis system-Cellomics (Thermo) and the raw data for each well was acquired as percentage of MBP+ population as follows: Pictures of eight fields per well were captured and analyzed quantitatively; the well data is the average of 8 fields. The intensity of anti-MBP staining in the cytosol was used as the criteria of positive objects. The threshold of positive objects was set based on the average intensity of the positive control well, for which triiodothyronine (15 nM) was used. Then the data was analyzed and presented as fold change of the number of the vehicle control well. Graphs were generated by softwares: Microsoft Excel and IDBS XL fits. The curve fitting was performed with software XL fits to derive EC50 of the positive compounds.
All data except FIG. 1 are given as mean±standard error of the mean (SEM). […]
For the molecule `CC(C)N1CCC(OC2CCN(c3ccc(C#N)cc3)CC2)CC1` [Example compound 3, 4-(4-((1-isopropylpiperidin-4-yl)oxy)piperidin-1-yl)benzonitrile hydrochloride], the concentration for a half-maximal effect (EC50) came to 31 nM. The same measure, in the same setting: the figure for `Clc1ccc(CCCOCCCN2CCCCC2)cc1` [Example compound 6, 1-(3-(3-(4-chlorophenyl)propoxy)propyl)piperidine, reference compound] is 14 nM; for `C[C@@H]1CCCN1CCCOc1ccc(-c2ccc(=O)[nH]n2)cc1` [Example compound 7, (R)-6-(4-(3-(2-methylpyrrolidin-1-yl)propoxy)phenyl)pyridazin-3(2H)-one, reference compound] it is 250 nM.

For the molecule `N=C(NCc1ccc(Cl)cc1)SCCCc1c[nH]cn1` [Example compound 8, 3-(1H-imidazol-4-yl)propyl 4-chlorobenzylcarbamimidothioate dihydrobromide, reference compound], the concentration giving a half-maximal response (EC50) was found to be 48 nM.

Staying with this assay, now noted: all concentrations (0.3 nM-10 uM), FIG. 1b.
Turning to `c1ccc(COCCCc2cnc[nH]2)cc1` [Example compound 4, 4-[3-(Phenylmethoxy)propyl]-1H-imidazole oxalate, reference compound], the “effect on OPC differentiation” value is recorded as “didn't show any effect”. On the same count and under the same terms, the entry for `c1nc(CCCC2CCNCC2)c[nH]1` [Example compound 5, 4-[3-(1H-Imidazol-4-yl)propyl]piperidine dihydrobromide, reference compound] is “didn't show any effect”.
